Assay results from article PMC7926980, “The Antiproliferative and Apoptotic Effect of a Novel Synthesized S-Triazine Dipeptide Series, and Toxicity Screening in Zebrafish Embryos” (Molecules, 2021).

Experiments:
[1] = system: MCF-7 cells; experiment: MTT cell viability assay, MCF-7; assay type: cell-based, human; details: Homo sapiens, MCF7, 72 h, 72 h treatment
Protocol: (§1) The antiproliferative activity of the synthesized compounds was evaluated by the 3-(4,5-dimethylthiazol-2-yl)-2,5-diphenyl tetrazolium bromide (MTT) cell viability assay. Two types of breast cancer cell lines—namely MCF-7, which has estrogen and progesterone receptors, and MDA-MB-231, which is triple negative—were used, in addition to a colon cancer cell line (HCT-116).
(§2) The target products 3a–o were evaluated for their antiproliferative activity using the MTT viability assay of the MCF-7, MDA-MB-231 and HCT-116 cell lines (in triplicate) on at least three independent occasions for the determination of the reported mean values.
(§3) The three human tumor cell lines MCF-7, MDA-MB-231 and HCT-116 were cultured in Dulbecco’s Modified Eagle’s Medium (DMEM) with 10% fetal bovine serum, 2 mM L-glutamine and 100 µg/mL penicillin/streptomycin. The cells were maintained at 37 °C in 5% CO2 in a humidified incubator. All of the cells were sub-cultured 3 times/week by trypsinization using TrypLE Express (1×).
(§4) In order to calculate the relative IC50 values, the antiproliferative effect of compounds 3a–o was tested in three cancer cell lines (MCF-7, MDA-MB-231, HCT-116) and normal epithelial embryonic kidney cells (HEK-293) using the MTT viability assay. The cells were seeded in 96-well plates at a density of 10 × 10^3 cells/mL, in a total volume of 200 µL per well. In total, 0.1% DMSO was used as a vehicle control. […] The culture medium was then removed, and the cells were washed with phosphate-buffered saline (PBS), and 100 µL MTT was added (for a final concentration of 5 mg/mL MTT). The cells were incubated for 4 h in darkness at 37 °C. Next, 200 µL DMSO was added to each well, and the cells were maintained at room temperature in darkness for 20 min. The absorbance was detected with a microplate reader at 570 nm. The results were expressed as a percentage of viability relative to the vehicle control (100%). The dose-response curves were plotted, and the IC50 values were obtained using Prism software (GraphPad Software, Inc., La Jolla, CA, USA). All of the experiments were repeated in three independent experiments.

[2] = system: MDA-MB-231 cells; experiment: MTT cell viability assay, MDA-MB-231; assay type: cell-based; details: Homo sapiens, 72 h treatment
Protocol: as §1, §2, §3, §4

[3] = Zebrafish embryo mortality/toxicity; assay type: in vivo; details: wild-type, in vivo; zebrafish embryos, overnight exposure, 0.5 to 1000 µM; mean of three biological replicates ± standard deviation
Protocol: (§5) The zebrafish embryos were obtained by natural pairwise breeding, and were treated essentially as described previously.
(§6) The compounds were dissolved in dimethylsulfoxide (DMSO) in order to prepare a stock concentration of 10 mM. The embryos treated with 0.10% DMSO (v/v) served as the negative controls.
(§7) The fish were kept following the national and international guidelines for the care and use of laboratory animals. The fertilized eggs were obtained by the natural pairwise breeding of adult fish. The approval of the Ethics Committee for the use and care of laboratory animals was not needed, as zebrafish larvae less than 5 days post fertilization were used.
(§8) A stock solution of 50 mM was prepared by dissolving the compounds in dimethyl sulfoxide (DMSO). At least 30 fertilized eggs were sorted and placed in 60-mm sterile glass Petri dishes. A serial dilution of the compounds was prepared by adding the required amount of the compound directly into 5 mL water, and the zebrafish embryos were then exposed to serial dilutions (0.5 to 1000 µM) of each compound overnight. The number of dead and living embryos were counted after the overnight exposure.

[4] = system: HCT-116 cells; experiment: MTT cell viability assay, HCT-116; assay type: cell-based; details: Homo sapiens, 72 h treatment
Protocol: as §1, §2, §3, §4

[5] = system: zebrafish embryos; experiment: Zebrafish embryo imaging (morphology, teratogenicity); assay type: in vivo; details: 10 µM, embryos at 48 hpf
From the text: The treated embryos had cardiac edema, craniofacial defects, tail lesions, and a delay in embryonic development. These observations are consistent with the findings in the literature.
A Zeiss Observer D1 inverted microscope using Zeiss ZEN software was used to capture the images of the live zebrafish embryos.
Figure 6 Representative images of the zebrafish embryos 48 hpf (A) control or (B) treated.

[6] = system: zebrafish embryos; experiment: Zebrafish embryo mortality/toxicity; assay type: in vivo; details: maximum concentration tested 1 mM, versus DMSO control
Protocol: as §5, §6, §7, §8

COC(=O)C(C)NC(=O)CNc1nc(Nc2ccc(Cl)cc2)nc(N2CCOCC2)n1 (stereo not drawn) [Compound 3e, Methyl (4-((4-chlorophenyl)amino)-6-morpholino-1,3,5-triazin-2-yl) glycylalaninate]
IC50 [1]: 4.35 ± 2.86 µM | IC50 [2]: 8.2 ± 1.68 µM | LC50 [3]: 2.37 ± 0.27 µM | IC50 [4]: > 50 µM

CC/C(=C(\c1ccccc1)c1ccc(OCCN(C)C)cc1)c1ccccc1 [Tamoxifen, reference compound]
teratogenic effect in zebrafish embryos [5]: severe teratogenic effect

COC(=O)C(C)NC(=O)CNc1nc(Nc2ccccc2)nc(N2CCOCC2)n1 (stereo not drawn) [Compound 3d, Methyl (4-morpholino-6-(phenylamino)-1,3,5-triazin-2-yl) glycylalaninate]
IC50 [1]: 3.57 ± 0.81 µM | IC50 [2]: 16.2 ± 0.63 µM | toxicity / mortality in zebrafish embryos [6]: did not show any toxicity | LC50 [3]: > 1000 µM | IC50 [4]: > 50 µM

COC(=O)C(C)NC(=O)CNc1nc(Nc2ccc(Cl)cc2)nc(N2CCCCC2)n1 (stereo not drawn) [Compound 3l, Methyl (4-((4-chlorophenyl)amino)-6-(piperidin-1-yl)-1,3,5-triazin-2-yl) glycylalaninate]
IC50 [1]: 1.46 ± 0.69 µM | IC50 [2]: 8.31 ± 0.69 µM | LC50 [3]: 4.25 ± 0.38 µM | IC50 [4]: 7.06 ± 0.27 µM

COC(=O)C(C)NC(=O)CNc1nc(Nc2ccccc2)nc(N2CCCCC2)n1 (stereo not drawn) [Compound 3k, Methyl (4-(phenylamino)-6-(piperidin-1-yl)-1,3,5-triazin-2-yl) glycylalaninate]
IC50 [1]: 15.3 ± 2.49 µM | IC50 [2]: 13.3 ± 1.12 µM | LC50 [3]: 5.98 ± 0.53 µM | IC50 [4]: > 50 µM

COC(=O)C(NC(=O)CCNc1nc(Nc2ccc(Cl)cc2)nc(N2CCCCC2)n1)C(C)C (stereo not drawn) [Compound 3o, Methyl (3-((4-((4-chlorophenyl)amino)-6-(piperidin-1-yl)-1,3,5-triazin-2-yl)amino)propanoyl) valinate]
IC50 [1]: 4.64 ± 1.58 µM | IC50 [2]: 15.7 ± 2.21 µM | LC50 [3]: 1.97 ± 0.27 µM | IC50 [4]: 18.9 ± 2.82 µM

COC(=O)CNC(=O)CCNc1nc(Nc2ccc(Cl)cc2)nc(N2CCOCC2)n1 [Compound 3m, Methyl (3-((4-((4-chlorophenyl)amino)-6-morpholino-1,3,5-triazin-2-yl)amino)propanoyl) glycinate]
IC50 [1]: 19.7 ± 1.48 µM | IC50 [2]: 26.7 ± 1.32 µM | LC50 [3]: 5.58 ± 0.95 µM | IC50 [4]: > 50 µM

COC(=O)C(C)NC(=O)CNc1nc(Nc2ccc(OC)cc2)nc(N2CCOCC2)n1 (stereo not drawn) [Compound 3f, Methyl (4-((4-methoxyphenyl)amino)-6-morpholino-1,3,5-triazin-2-yl) glycylalaninate]
IC50 [1]: 8.02 ± 0.5 µM | IC50 [2]: 28.1 ± 1.07 µM | LC50 [3]: 28.4 ± 1.18 µM | IC50 [4]: > 50 µM

COC(=O)C(NC(=O)CCNc1nc(Nc2ccc(Cl)cc2)nc(N2CCOCC2)n1)C(C)C (stereo not drawn) [Compound 3n, Methyl (3-((4-((4-chlorophenyl)amino)-6-morpholino-1,3,5-triazin-2-yl)amino)propanoyl) valinate]
IC50 [1]: 2.35 ± 1.06 µM | IC50 [2]: 8.48 ± 1.71 µM | LC50 [3]: 5.84 ± 1.09 µM | IC50 [4]: 14.4 ± 1.37 µM

COC(=O)CNC(=O)CNc1nc(Nc2ccc(Cl)cc2)nc(N2CCOCC2)n1 [Compound 3b, Methyl (4-((4-chlorophenyl)amino)-6-morpholino-1,3,5-triazin-2-yl) glycylglycinate]
IC50 [1]: 6.18 ± 0.46 µM | IC50 [2]: > 50 µM | toxicity / mortality in zebrafish embryos [6]: did not show any toxicity | LC50 [3]: > 1000 µM | IC50 [4]: > 50 µM

COC(=O)CNC(=O)CNc1nc(Nc2ccc(OC)cc2)nc(N2CCOCC2)n1 [Compound 3c, Methyl (4-((4-methoxyphenyl)amino)-6-morpholino-1,3,5-triazin-2-yl) glycylglycinate]
IC50 [1]: 13.5 ± 1.01 µM | IC50 [2]: > 50 µM | toxicity / mortality in zebrafish embryos [6]: did not show any toxicity | LC50 [3]: > 1000 µM | IC50 [4]: > 50 µM

COC(=O)CNC(=O)CNc1nc(Nc2ccccc2)nc(N2CCCCC2)n1 [Compound 3h, Methyl (4-(phenylamino)-6-(piperidin-1-yl)-1,3,5-triazin-2-yl) glycylglycinate]
IC50 [1]: 19.64 ± 0.08 µM | IC50 [2]: > 50 µM | LC50 [3]: 10.1 ± 0.43 µM | IC50 [4]: 15.2 ± 2.04 µM

COC(=O)CNC(=O)CNc1nc(Nc2ccc(OC)cc2)nc(N2CCCCC2)n1 [Compound 3j, Methyl (4-((4-methoxyphenyl)amino)-6-(piperidin-1-yl)-1,3,5-triazin-2-yl) glycylglycinate]
IC50 [1]: 25.3 ± 2.75 µM | IC50 [2]: > 50 µM | LC50 [3]: 80.15 ± 0.59 µM | IC50 [4]: 23.4 ± 3.43 µM

COC(=O)C(NC(=O)CNc1nc(Nc2ccc(Cl)cc2)nc(N2CCOCC2)n1)C(C)C (stereo not drawn) [Compound 3g, Methyl (4-((4-chlorophenyl)amino)-6-morpholino-1,3,5-triazin-2-yl) glycylvalinate]
IC50 [1]: 13.2 ± 0.6 µM | IC50 [2]: 24.1 ± 2.61 µM | LC50 [3]: 132.1 ± 0.86 µM | IC50 [4]: 12.2 ± 1.74 µM

COC(=O)CNC(=O)CNc1nc(Nc2ccc(Cl)cc2)nc(N2CCCCC2)n1 [Compound 3i, Methyl (4-((4-chlorophenyl)amino)-6-(piperidin-1-yl)-1,3,5-triazin-2-yl) glycylglycinate]
IC50 [1]: 8.37 ± 0.77 µM | IC50 [2]: 22.3 ± 1.87 µM | LC50 [3]: 6.22 ± 0.39 µM | IC50 [4]: 18.5 ± 1.45 µM
